These results are taken from patent US20210101874A1, “MICROBIOCIDAL OXADIAZOLE DERIVATIVES” (SYNGENTA PARTICIPATIONS AG, priority 2017, published 2021).

The structures appear in SMILES notation. Bounds are passed on as bounds.

What is called melting point is the temperature, or range, at which the solid turns liquid. The inhibition is the relative decrease from the control value, in per cent.

The test system of series [1] is Phakopsora pachyrhizi. As to the kind of experiment: Phakopsora pachyrhizi / soybean / leaf disc preventative (Asian soybean rust). Format: in vivo. The conditions noted are these: foliar, 200 ppm in the applied formulation, soybean leaf disks, inoculated one day after application, compared to untreated, assessed 12 to 14 days after application, read-out: disease control. Here is the method:
Leaf disks or leaf segments of various plant species are cut from plants grown in a greenhouse. The cut leaf disks or segments are placed in multiwell plates (24-well format) onto water agar. The leaf disks are sprayed with a test solution before (preventative) or after (curative) inoculation. Compounds to be tested are prepared as DMSO solutions (max. 10 mg/ml) which are diluted to the appropriate concentration with 0.025% Tween20 just before spraying. The inoculated leaf disks or segments are incubated under defined conditions (temperature, relative humidity, light, etc.) according to the respective test system. A single evaluation of disease level is carried out 3 to 14 days after inoculation, depending on the pathosystem. Percent disease control relative to the untreated check leaf disks or segments is then calculated.
Soybean leaf disks are placed on water agar in multiwell plates (24-well format) and sprayed with the formulated test compound diluted in water. One day after application leaf discs are inoculated by spraying a spore suspension on the lower leaf surface. After an incubation period in a climate cabinet of 24-36 hours in darkness at 20° C. and 75% rh leaf disc are kept at 20° C. with 12 h light/day and 75% rh. The activity of a compound is assessed as percent disease control compared to untreated when an appropriate level of disease damage appears in untreated check leaf disks (12 to 14 days after application).
The following compounds at 200 ppm in the applied formulation give at least 80% disease control in this test when compared to untreated control leaf disks under the same conditions, which show extensive disease development.

For series [2], the system named is Puccinia recondita f. sp. Tritici. Kind of series: Puccinia recondita f. sp. tritici / wheat / leaf disc curative (brown rust). The format is in vivo. The conditions noted are these: foliar, 200 ppm in the applied formulation, wheat leaf segments cv. Kanzler, applied 1 day after inoculation, compared to untreated, assessed 6 to 8 days after application, read-out: disease control. Summed up: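 Spray application came one day after spore inoculation of Kanzler wheat leaf segments kept on agar. Conditions: 19° C, 75% relative humidity, dark before treatment and 12 h light/12 h dark after. Efficacy = % disease control compared with untreated, 6–8 days post-application.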

The subject of series [3] is Glomerella lagenarium (Colletotrichum lagenarium). As to the kind of experiment: Glomerella lagenarium (Colletotrichum lagenarium) liquid culture / cucumber / preventative (anthracnose). The format is cell-based. The conditions noted are these: Colletotrichum orbiculare; 20 ppm in the applied formulation; conidia in PDB nutrient broth, 24° C.; 3 to 4 days after application; compared to untreated; read-out: disease control (inhibition of growth measured photometrically). Summed up:
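Cryostored conidia in potato dextrose broth added to compound diluted from DMSO solution, 96-well format. Plates incubated at 24 °C. Growth inhibition read photometrically 3 to 4 days after application, as percent activity versus untreated check.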

Series [4] concerns Puccinia recondita f. sp. Tritici. Kind of series: Puccinia recondita f. sp. tritici / wheat / leaf disc preventative (brown rust). The format is in vivo. The conditions noted are these: foliar, 200 ppm in the applied formulation, wheat leaf segments cv. Kanzler, inoculated 1 day after application, compared to untreated, assessed 7 to 9 days after application, read-out: disease control. Summed up: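 Compound, diluted from DMSO solution into aqueous 0.025% Tween20, is sprayed at 200 ppm onto cut wheat segments (cv. Kanzler) placed on water agar. One day on, segments receive a fungal spore suspension and are incubated at 19° C., 75% rh, 12 h photoperiod, with % control vs untreated scored at 7–9 days.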

`CCS(=O)(=O)N(C)Cc1ccc(-c2noc(C(F)(F)F)n2)cc1` [Compound 1.13, N-methyl-N-[[4-[5-(trifluoromethyl)-1,2,4-oxadiazol-3-yl]phenyl]methyl] ethanesulfonamide] returned a melting point of 85 to 88 °C. Besides, in series [1], the pest or weed control at 200 ppm was ≥ 80%. Besides, the pest or weed control at 200 ppm in series [2] is ≥ 80%. In addition, the inhibition at 20 ppm in series [3] was ≥ 80%. In addition, the pest or weed control at 200 ppm in series [4] is ≥ 80%.

As for `CN(Cc1ccc(-c2noc(C(F)(F)F)n2)cc1)S(=O)(=O)N1CCOCC1` [Compound 1.15, N-methyl-N-[[4-[5-(trifluoromethyl)-1,2,4-oxadiazol-3-yl]phenyl]methyl] morpholine-4-sulfonamide], the melting point is 118 to 120 °C. In addition, in series [1], the pest or weed control at 200 ppm is ≥ 80%. Moreover, in series [2], the pest or weed control at 200 ppm was ≥ 80%. For the same compound, the inhibition at 20 ppm in series [3] was ≥ 80%. Moreover, the pest or weed control at 200 ppm in series [4] is ≥ 80%.

`CCNS(=O)(=O)N(C)Cc1ccc(-c2noc(C(F)(F)F)n2)cc1` [Compound 1.16, 3-[4-[[ethylsulfamoyl (methyl)amino]methyl]phenyl]-5-(trifluoromethyl)-1,2,4-oxadiazole] yielded a melting point of 63 to 66 °C. Moreover, the pest or weed control at 200 ppm in series [1] is ≥ 80%. Further, the pest or weed control at 200 ppm in series [2] is ≥ 80%. The inhibition at 20 ppm in series [3] is ≥ 80%. The pest or weed control at 200 ppm in series [4] was ≥ 80%.

As to `CCNS(=O)(=O)N(Cc1ccc(-c2noc(C(F)(F)F)n2)cc1)C1CC1` [Compound 1.17, 3-[4-[[cyclopropyl (ethylsulfamoyl)amino]methyl]phenyl]-5-(trifluoromethyl)-1,2,4-oxadiazole], the melting point is 108 to 110 °C. Further, the pest or weed control at 200 ppm in series [1] is ≥ 80%. Moreover, the pest or weed control at 200 ppm in series [2] was ≥ 80%. For the same compound, the inhibition at 20 ppm in series [3] is ≥ 80%. Besides, in series [4], the pest or weed control at 200 ppm is ≥ 80%.

As to `CCN(Cc1ccc(-c2noc(C(F)(F)F)n2)cc1F)S(C)(=O)=O` [Compound 1.103, N-ethyl-N-[[2-fluoro-4-[5-(trifluoromethyl)-1,2,4-oxadiazol-3-yl]phenyl]methyl] methanesulfonamide], the melting point lay within 90 to 93 °C. Moreover, the pest or weed control at 200 ppm in series [1] was ≥ 80%. Further, the pest or weed control at 200 ppm in series [2] was ≥ 80%. In series [3], the inhibition at 20 ppm is ≥ 80%. In addition, the pest or weed control at 200 ppm in series [4] is ≥ 80%.

Consider `CCN(Cc1ccc(-c2noc(C(F)(F)F)n2)c(F)c1F)S(C)(=O)=O` [Compound 1.104, N-[[2,3-difluoro-4-[5-(trifluoromethyl)-1,2,4-oxadiazol-3-yl]phenyl]methyl]-N-ethyl-methanesulfonamide], for which the melting point was 81 to 93 °C. Moreover, in series [1], the pest or weed control at 200 ppm is ≥ 80%. In addition, the pest or weed control at 200 ppm in series [2] was ≥ 80%. The inhibition at 20 ppm in series [3] is ≥ 80%. Moreover, in series [4], the pest or weed control at 200 ppm is ≥ 80%.

`COCCS(=O)(=O)NCc1ccc(-c2noc(C(F)(F)F)n2)cc1` [Compound 2.1, 2-methoxy-N-[[4-[5-(trifluoromethyl)-1,2,4-oxadiazol-3-yl]phenyl]methyl] ethanesulfon-amide] yielded a melting point of 97 to 100 °C. In addition, in series [1], the pest or weed control at 200 ppm is ≥ 80%. For the same compound, the pest or weed control at 200 ppm in series [2] was ≥ 80%. For the same compound, the inhibition at 20 ppm in series [3] is ≥ 80%. In addition, the pest or weed control at 200 ppm in series [4] was ≥ 80%.

As for `CCS(=O)(=O)NCc1ccc(-c2noc(C(F)(F)F)n2)cc1` [Compound 2.2, N-[[4-[5-(trifluoromethyl)-1,2,4-oxadiazol-3-yl]phenyl]methyl] ethanesulfon-amide], the melting point fell in the range of 127 to 129 °C. Also, the pest or weed control at 200 ppm in series [1] is ≥ 80%. The pest or weed control at 200 ppm in series [2] is ≥ 80%. Also, in series [3], the inhibition at 20 ppm was ≥ 80%. Further, the pest or weed control at 200 ppm in series [4] was ≥ 80%.
